The target of this test is T1, ENPP1 (Homo sapiens, UniProt P22413).
T1 sequence (P22413 1-925): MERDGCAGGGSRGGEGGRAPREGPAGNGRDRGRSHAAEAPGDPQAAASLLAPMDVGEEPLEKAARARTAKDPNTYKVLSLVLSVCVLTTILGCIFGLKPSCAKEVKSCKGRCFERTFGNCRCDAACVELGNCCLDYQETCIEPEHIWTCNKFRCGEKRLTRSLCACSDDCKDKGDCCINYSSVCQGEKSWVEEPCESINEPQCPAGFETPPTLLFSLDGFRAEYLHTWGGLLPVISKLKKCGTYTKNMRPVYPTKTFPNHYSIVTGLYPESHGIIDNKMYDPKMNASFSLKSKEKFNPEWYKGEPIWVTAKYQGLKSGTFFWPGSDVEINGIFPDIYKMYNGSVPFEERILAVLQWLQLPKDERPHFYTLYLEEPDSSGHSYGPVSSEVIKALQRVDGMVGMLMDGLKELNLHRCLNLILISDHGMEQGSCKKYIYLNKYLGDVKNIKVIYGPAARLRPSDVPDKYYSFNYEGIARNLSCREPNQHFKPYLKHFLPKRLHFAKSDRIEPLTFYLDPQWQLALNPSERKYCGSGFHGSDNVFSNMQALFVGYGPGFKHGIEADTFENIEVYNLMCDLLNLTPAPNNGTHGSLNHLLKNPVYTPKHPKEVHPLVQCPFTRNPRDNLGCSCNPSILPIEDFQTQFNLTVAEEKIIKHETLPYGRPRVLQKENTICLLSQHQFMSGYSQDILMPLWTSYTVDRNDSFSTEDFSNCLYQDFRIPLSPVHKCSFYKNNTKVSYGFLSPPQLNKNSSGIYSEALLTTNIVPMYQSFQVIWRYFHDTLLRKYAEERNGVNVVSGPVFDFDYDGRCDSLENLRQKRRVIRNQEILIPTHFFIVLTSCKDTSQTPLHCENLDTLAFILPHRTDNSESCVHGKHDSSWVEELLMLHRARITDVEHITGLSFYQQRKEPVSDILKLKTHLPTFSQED
Kind of test: Indirect quantitation of 2',3'-cGAMP hydrolysis (AMP-Glo Assay kit). The class given is biochemical. As to conditions: cGAMP substrate; Ki from IC50 by Cheng-Prusoff; read-out: ENPP1 Inhibition -cGAMP: Ki.

Bounds are passed on as bounds.

For 38 molecules, Ki results are on record in patent US20230183239A1, “ECTONUCLEOTIDE PYROPHOSPHATASE-PHOSPHODIESTERASE 1 (ENPP-1) INHIBITORS AND USES THEREOF” (AbbVie Inc., priority 2017, published 2023).

For orientation: Ki means a measure of affinity in units of concentration, obtained from inhibition or displacement.

Turning to `NS(=O)(=O)Nc1ccc(Oc2ccnc3[nH]ccc23)cc1` [Example 321, N-(4-((1H-pyrrolo[2,3-b]pyridin-4-yl)oxy)phenyl)sulfamide], the Ki was > 1 µM.

For `NS(=O)(=O)NCCC1CCN(c2ncnc3c2CCN(Cc2ccccc2)C3)CC1` [Example 233, N-(2-(1-(7-benzyl-5,6,7,8-tetrahydropyrido[3,4-d]pyrimidin-4-yl)piperidin-4-yl)ethyl)sulfamide], the Ki is > 1 µM.

As to `COc1cc2ncnc(NCc3ccc(S(=O)(=O)O)cc3)c2cc1OC` [Example 161, 4-(((6,7-dimethoxyquinazolin-4-yl)amino)methyl)benzene sulfonic acid], the Ki is > 1 µM.

With `COc1cc2ncnc(N3CC=C(c4ccc5c(c4)COB5O)CC3)c2cc1OC` [Example 157, 5-(1-(6,7-dimethoxyquinazolin-4-yl)-1,2,3,6-tetrahydropyridin-4-yl)benzo[c][1,2] oxaborol-1(3H)-ol], the Ki was < 0.1 µM.

On to `COc1cc(NC(C)=O)c(C(=O)N2CCC(CCNS(N)(=O)=O)CC2)cc1OC` [Example 44, N-(4,5-dimethoxy-2-(4-(2-(sulfamoylamino)ethyl)piperidine-1-carbonyl)phenyl)acetamide], for which the Ki is > 1 µM.

Regarding `COc1cc2nccc(Oc3ccc(N)cc3)c2cc1OC` [Example 341, 4-((6,7-dimethoxyquinolin-4-yl)oxy)aniline], the Ki is > 1 µM.

On to `COc1cc2ncnc(-c3ccc4c(c3)CCC(NS(N)(=O)=O)C4)c2cc1OC` (centres unmarked) [Example 131, N-(6-(6,7-dimethoxyquinazolin-4-yl)-1,2,3,4-tetrahydronaphthalen-2-yl)sulfamide], for which the Ki is > 1 µM.

In the case of `COc1cc2nccc(Oc3ccc(NS(=O)(=O)C(F)(F)F)cc3)c2cc1OC` [Example 162, N-(4-((6,7-dimethoxyquinolin-4-yl)oxy)phenyl)-1,1,1-trifluoromethanesulfonamide], the Ki is < 0.1 µM.

Regarding `CNS(=O)(=O)NCCC1CCN(c2ncnc3cc(OC)c(OC)cc23)CC1` [Example 168, 2-(1-(6,7-dimethoxyquinazolin-4-yl)piperidin-4-yl)ethan-1-amino(N-methyl)sulfonamide], the Ki was > 1 µM.

On to `COc1ccc2c(-c3ccc(CN(C4CC4)S(N)(=O)=O)cc3)ncnc2c1` [Example 324, N-cyclopropyl-N-(4-(7-methoxyquinazolin-4-yl)benzyl)sulfamide], for which the Ki is 0.1 to 1 µM.

On to `COc1cc2ncnc(NC(=O)c3ccc(NS(N)(=O)=O)cc3)c2cc1OC` [Example 188, N-(6,7-dimethoxyquinazolin-4-yl)-4-(sulfamoylamino)benzamide], for which the Ki was in the range of 0.1 to 1 µM.

As to `COc1ccc(-c2cc(N3CCC(CCNS(N)(=O)=O)CC3)ncn2)cc1OC` [Example 38, N-(2-(1-(6-(3,4-dimethoxyphenyl)pyrimidin-4-yl)piperidin-4-yl)ethyl)sulfamide], the Ki is > 1 µM.

Turning to `COc1ccc2nccc(Oc3ccc(NS(N)(=O)=O)cc3)c2n1` [Example 346, N-(4-((6-methoxy-1,5-naphthyridin-4-yl)oxy)phenyl)sulfamide], the Ki was in the range of 0.1 to 1 µM.

As for `COc1cc2nc(N(C)C)nc(N3CCC(CCNC=O)CC3)c2cc1OC` [Example 118, N-(2-(1-(2-(dimethylamino)-6,7-dimethoxyquinazolin-4-yl)piperidin-4-yl)ethyl)formamide], the Ki is > 1 µM.

Turning to `Cn1ncc2c(N3CCC(CCNS(N)(=O)=O)CC3)ccnc21` [Example 135, N-(2-(1-(1-methyl-1H-pyrazolo[3,4-b]pyridin-4-yl)piperidin-4-yl)ethyl)sulfamide], the Ki was 0.1 to 1 µM.

With `COc1cc(C#N)c(C(=O)N2CCC(CCNS(N)(=O)=O)CC2)cc1OC` [Example 129, N-(2-(1-(2-cyano-4,5-dimethoxybenzoyl)piperidin-4-yl)ethyl)sulfamide], the Ki is > 1 µM.

Take `COc1cc2ncnc(N3CCC(CCN(C)C)CC3)c2cc1OC` [Example 115, 2-(1-(6,7-dimethoxyquinazolin-4-yl)piperidin-4-yl)-N,N-dimethylethan-1-amine]: the Ki fell in the range of 0.1 to 1 µM.

For `COc1ccc2c(Oc3ccc(N(Cc4ccccc4)S(N)(=O)=O)cc3)ccnc2c1` [Example 309, N-benzyl-N-(4-((7-methoxyquinolin-4-yl)oxy)phenyl)sulfamide], the Ki was 0.1 to 1 µM.

`COc1cc2nccc(Oc3ccc(NS(N)(=O)=O)nc3)c2cc1OC` [Example 176, N-(5-((6,7-dimethoxyquinolin-4-yl)oxy)pyridin-2-yl)sulfamide]: the Ki is > 1 µM.

Regarding `NS(=O)(=O)NCCC1CCN(c2ncnc3cc(OC(F)(F)F)ccc23)CC1` [Example 209, N-(2-(1-(7-(trifluoromethoxy)quinazolin-4-yl)piperidin-4-yl)ethyl)sulfamide], the Ki was > 1 µM.

Consider `COc1cc2ncnc(Nc3ccc(CC(=O)O)cc3)c2cc1OC` [Example 332, 2-(4-((6,7-dimethoxyquinazolin-4-yl)amino)phenyl)acetic acid], for which the Ki is > 1 µM.

For `COc1ccc2c(Oc3ccc(NS(N)(=O)=O)cc3Cl)ccnc2c1` [Example 329, N-(3-chloro-4-((7-methoxyquinolin-4-yl)oxy)phenyl)sulfamide], the Ki was 0.1 to 1 µM.

For the molecule `Cn1cnc2ncnc(-c3ccc(CNS(N)(=O)=O)cc3)c21` [Example 128, N-(4-(7-methyl-7H-purin-6-yl)benzyl)sulfamide], the Ki was in the range of 0.1 to 1 µM.

`COc1cc2nccc(N3CCC(CN4CCCNS4(=O)=O)CC3)c2cc1OC` [Example 223, 2-((1-(6,7-dimethoxyquinolin-4-yl)piperidin-4-yl)methyl)-1,2,6-thiadiazinane 1,1-dioxide]: the Ki was > 1 µM.

`COc1cc2ncc(Nc3ccc(NS(N)(=O)=O)cc3)nc2cc1OC` [Example 286, N-(4-((6,7-dimethoxyquinoxalin-2-yl)amino)phenyl)sulfamide]: the inhibitory constant (Ki) was > 1 µM.

For `COc1cc2ncnc(NCc3ccc(N4CCNS4(=O)=O)cc3)c2cc1OC` [Example 228, 2-(4-(((6,7-dimethoxyquinazolin-4-yl)amino)methyl)phenyl)-1,2,5-thiadiazolidine 1,1-dioxide], the Ki is > 1 µM.

`Cc1cc(N2CCC(CCNS(N)(=O)=O)CC2)ncn1` [Example 16, N-(2-(1-(6-methylpyrimidin-4-yl)piperidin-4-yl)ethyl)sulfamide]: the Ki was > 1 µM.

As to `NS(=O)(=O)NCCC1CCN(c2ncnc3ccc(OC(F)(F)F)cc23)CC1` [Example 194, N-(2-(1-(6-(trifluoromethoxy)quinazolin-4-yl)piperidin-4-yl)ethyl)sulfamide], the Ki was > 1 µM.

With `COc1cc2c(-c3ccc4c(c3)CN(S(N)(=O)=O)CC4)c(C#N)cnc2cn1` [Example 257, 7-(3-cyano-6-methoxy-1,7-naphthyridin-4-yl)-3,4-dihydroisoquinoline-2(1H)-sulfonamide], the Ki is > 1 µM.

On to `NS(=O)(=O)Nc1ccc(Oc2ccnc3cc(F)ccc23)cc1` [Example 298, N-(4-((7-fluoroquinolin-4-yl)oxy)phenyl)sulfamide], for which the inhibitory constant (Ki) was > 1 µM.

Regarding `COc1cc2nc(-c3ccccc3)nc(N3CCC(CCNS(N)(=O)=O)CC3)c2cc1OC` [Example 8, N-(2-(1-(6,7-dimethoxy-2-phenylquinazolin-4-yl)piperidin-4-yl)ethyl)sulfamide], the Ki is > 1 µM.

Turning to `COc1ccc2c(Oc3ccc(NS(N)(=O)=O)cc3OC)ccnc2c1` [Example 323, N-(3-methoxy-4-((7-methoxyquinolin-4-yl)oxy)phenyl)sulfamide], the Ki is > 1 µM.

On to `COc1cc2ncnc(-c3ccc(S(N)(=O)=O)cc3)c2cc1OC` [Example 333, 4-(6,7-dimethoxyquinazolin-4-yl)benzenesulfonamide], for which the Ki was > 1 µM.

Consider `COc1cc2ncn(Cc3ccc(NS(N)(=O)=O)cc3)c(=O)c2cc1OC` [Example 165, N-(4-((6,7-dimethoxy-4-oxoquinazolin-3 (4H)-yl)methyl)phenyl) sulfamide], for which the inhibition constant (Ki) is > 1 µM.

Take `COc1ccc2c(-c3ccc(CNS(N)(=O)=O)cc3)coc2c1` [Example 348, N-(4-(6-methoxybenzofuran-3-yl)benzyl) sulfamide]: the Ki is 0.1 to 1 µM.

On to `COc1cc2ncnc(N3CCC(CCNS(=O)(=O)Nc4ccccc4)CC3)c2cc1OC` [Example 183], for which the Ki was > 1 µM.

Regarding `COc1cc2ncnc(N3CCC(Cn4c(N)nc5ccccc54)CC3)c2cc1OC` [Example 252, 1-((1-(6,7-dimethoxyquinazolin-4-yl)piperidin-4-yl)methyl)-1H-benzo[d]imidazol-2-amine], the Ki is > 1 µM.

`COc1cc2ncnc(OCc3ccc(NS(N)(=O)=O)cc3)c2cc1OC` [Example 179, N-(4-(((6,7-dimethoxyquinazolin-4-yl)oxy)methyl)phenyl)sulfamide]: the Ki is > 1 µM.
